Columns and labels:
[1] = target: T1, isolated recombinant JAK1 kinase domain (Homo sapiens, UniProt P23458); assay: JAK1 enzyme assay (Caliper LabChip, Ki); format: biochemical; settings: 25 μM ATP
T1 construct: The activity of the isolated recombinant JAK1 and JAK2 kinase domain was measured
Procedure, shortened: (§1)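 Ki values fitted with Morrison tight-binding equation adjusted for ATP-competitive inhibition, using product-to-total peptide ratio read by Caliper LabChip. Reactions: isolated JAK1 or JAK2 kinase domain with N-terminal 5-carboxyfluorescein JAK3-derived peptide, 22° C for 30 min, quenched by EDTA.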

LRRK2 = LRRK2 (Homo sapiens, UniProt Q5S007); assay: LRRK2 assay (Life Technologies Adapta, SelectScreen Profiling, IC50); format: biochemical; settings: for selectivity for JAK1 over LRRK2 (in words): 5-sulfanylphenyl compound compared with 5-chlorophenyl matched pair; for IC50: 75 μM ATP, 10-point curves, read-out: LRRK 2 IC50; for Ratio (LRRK 2 IC50: JAK1 Ki): selectivity ratio LRRK2 IC50 over JAK1 Ki
LRRK2, sequence (Q5S007 970-2527 limits assumed): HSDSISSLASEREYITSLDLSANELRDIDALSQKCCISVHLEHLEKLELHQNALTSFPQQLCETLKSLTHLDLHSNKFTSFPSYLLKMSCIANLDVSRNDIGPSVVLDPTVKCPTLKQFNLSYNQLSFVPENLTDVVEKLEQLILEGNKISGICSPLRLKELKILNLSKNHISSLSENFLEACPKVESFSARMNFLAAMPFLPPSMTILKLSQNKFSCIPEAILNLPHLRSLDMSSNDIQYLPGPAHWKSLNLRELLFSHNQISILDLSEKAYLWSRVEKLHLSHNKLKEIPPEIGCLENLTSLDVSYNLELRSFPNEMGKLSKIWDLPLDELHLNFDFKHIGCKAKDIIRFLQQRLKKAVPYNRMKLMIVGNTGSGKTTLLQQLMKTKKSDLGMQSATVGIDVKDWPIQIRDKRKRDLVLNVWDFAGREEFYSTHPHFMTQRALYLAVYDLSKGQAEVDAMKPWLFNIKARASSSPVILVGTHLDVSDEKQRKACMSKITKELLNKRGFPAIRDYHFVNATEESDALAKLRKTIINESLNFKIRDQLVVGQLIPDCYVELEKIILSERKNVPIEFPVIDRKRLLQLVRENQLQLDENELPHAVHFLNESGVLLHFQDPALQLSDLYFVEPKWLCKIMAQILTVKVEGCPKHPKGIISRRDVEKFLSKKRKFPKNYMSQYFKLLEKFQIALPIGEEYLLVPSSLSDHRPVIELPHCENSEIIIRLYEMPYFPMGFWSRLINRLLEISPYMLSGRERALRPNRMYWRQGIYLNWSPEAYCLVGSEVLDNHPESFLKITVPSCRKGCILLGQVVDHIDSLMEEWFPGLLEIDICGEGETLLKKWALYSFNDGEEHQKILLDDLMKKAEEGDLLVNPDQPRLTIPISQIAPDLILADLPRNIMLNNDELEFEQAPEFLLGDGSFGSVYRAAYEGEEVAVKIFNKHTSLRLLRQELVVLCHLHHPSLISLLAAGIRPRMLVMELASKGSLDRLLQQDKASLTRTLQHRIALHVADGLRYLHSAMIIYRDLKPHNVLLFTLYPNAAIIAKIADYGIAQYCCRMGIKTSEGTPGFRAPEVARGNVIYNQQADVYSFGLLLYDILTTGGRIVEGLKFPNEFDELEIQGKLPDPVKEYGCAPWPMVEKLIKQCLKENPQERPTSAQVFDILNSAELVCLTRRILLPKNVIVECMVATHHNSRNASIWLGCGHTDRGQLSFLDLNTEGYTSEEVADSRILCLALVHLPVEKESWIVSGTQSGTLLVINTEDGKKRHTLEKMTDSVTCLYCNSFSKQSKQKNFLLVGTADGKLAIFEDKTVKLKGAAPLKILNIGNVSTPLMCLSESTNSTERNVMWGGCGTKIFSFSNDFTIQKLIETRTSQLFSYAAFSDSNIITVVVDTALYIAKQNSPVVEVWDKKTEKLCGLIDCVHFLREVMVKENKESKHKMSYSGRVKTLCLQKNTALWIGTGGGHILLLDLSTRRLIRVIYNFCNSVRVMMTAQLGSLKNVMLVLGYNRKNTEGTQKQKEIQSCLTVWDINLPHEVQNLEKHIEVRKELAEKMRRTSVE

[2] = test system: JAK1-dependent STAT6 phosphorylation downstream of IL-13 stimulation in BEAS-2B human bronchial epithelial cells; assay: JAK1 pathway assay in BEAS-2B cells (IL-13 stimulated STAT6 phosphorylation, MSD); format: cell-based; settings: read-out: P-STAT6 BEAS2B + IL13 IC50
Procedure, shortened: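 BEAS-2B human bronchial epithelial cells, plated the day before in complete growth medium, were preincubated with compound for 1 hr at 37° C (0.2% DMSO final), then stimulated with IL-13 at its EC90 for 15 min. STAT6 phosphorylation in lysates was read by MSD; EC50 was taken as 50% inhibition versus DMSO control.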

[3] = target: T2, isolated recombinant JAK2 kinase domain (Homo sapiens, UniProt O60674); assay: JAK2 enzyme assay (Caliper LabChip, Ki); format: biochemical; settings: 25 μM ATP
T2 construct: The activity of the isolated recombinant JAK1 and JAK2 kinase domain was measured
T2 sequence (O60674 849-1124 limits assumed): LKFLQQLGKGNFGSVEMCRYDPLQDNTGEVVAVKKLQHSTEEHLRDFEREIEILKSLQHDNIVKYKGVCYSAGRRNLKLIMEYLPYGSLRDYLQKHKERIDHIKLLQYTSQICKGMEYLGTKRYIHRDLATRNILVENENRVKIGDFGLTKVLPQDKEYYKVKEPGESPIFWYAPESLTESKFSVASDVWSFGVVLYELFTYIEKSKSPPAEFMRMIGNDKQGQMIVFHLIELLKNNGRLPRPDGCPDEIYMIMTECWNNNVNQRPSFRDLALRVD
Procedure, shortened: as §1

T1 sequence (P23458 875-1153 limits assumed): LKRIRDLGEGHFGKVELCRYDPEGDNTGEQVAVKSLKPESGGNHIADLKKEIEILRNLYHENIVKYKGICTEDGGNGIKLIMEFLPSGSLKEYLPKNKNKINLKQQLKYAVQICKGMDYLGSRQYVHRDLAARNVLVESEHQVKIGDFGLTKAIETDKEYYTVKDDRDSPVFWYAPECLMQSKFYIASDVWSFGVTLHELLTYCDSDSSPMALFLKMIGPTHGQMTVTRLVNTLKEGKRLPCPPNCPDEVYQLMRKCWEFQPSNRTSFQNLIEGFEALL

| Ki ([1]; Morrison tight binding model) [nM] | IC50 (LRRK2) [nM] | Ratio (LRRK 2 IC50: JAK1 Ki) (LRRK2) | Ki ([1]; recombinant JAK1 kinase domain) [nM] | Ki [3] [nM] | Compound | selectivity for JAK1 over LRRK2 (in words) (LRRK2) | IC50 [2] [nM] |
| --- | --- | --- | --- | --- | --- | --- | --- |
| 0.29 | – | – | – | – | Cn1cc(NC(=O)c2cnn3cccnc23)c(-c2cc(SC3COC3)ccc2OC(F)F)n1 [F] | greater selectivity for JAK1 over LRRK2 than their 5-chlorophenyl matched pair A | – |
| 0.29 | 1850 | 6379 | – | – | CSc1ccc(OC(F)F)c(-c2nn(CC(=O)N3CCC(N4CCOCC4)CC3)cc2NC(=O)c2cnn3cccnc23)c1 [N] | high degree of JAK1 over LRRK2 selectivity | – |
| 0.2 | 3350 | 16750 | – | – | CSc1ccc(OC(F)F)c(-c2nn(CC(=O)N3CCC(NCC(C)(C)C#N)CC3)cc2NC(=O)c2cnn3cccnc23)c1 [M] | high degree of JAK1 over LRRK2 selectivity | – |
| 0.2 | 1700 | 8500 | – | – | CSc1ccc(OC(F)F)c(-c2nn(CC(=O)N3CCC(N4CCC[C@@H](C#N)C4)CC3)cc2NC(=O)c2cnn3cccnc23)c1 [K] | high degree of JAK1 over LRRK2 selectivity | – |
| – | – | – | 0.62 | 1.3 | O=C(Nc1cn(CC(=O)N2CCN(CC3CCOCC3)CC2)nc1-c1cc(SC2COC2)ccc1OC(F)F)c1cnn2cccnc12 [Example 188, N-[3-[2-(difluoromethoxy)-5-(oxetan-3-ylsulfanyl)phenyl]-1-[2-oxo-2-[4-(tetrahydropyran-4-ylmethyl)piperazin-1-yl]ethyl]pyrazol-4-yl]pyrazolo[1,5-a]pyrimidine-3-carboxamide] | – | 48 |

The next lines start with the molecule.

| Compound | Ki ([1]; Morrison tight binding model) [nM] | IC50 (LRRK2) [nM] | Ratio (LRRK 2 IC50: JAK1 Ki) (LRRK2) | Ki ([1]; recombinant JAK1 kinase domain) [nM] | Ki [3] [nM] | selectivity for JAK1 over LRRK2 (in words) (LRRK2) | IC50 [2] [nM] |
| --- | --- | --- | --- | --- | --- | --- | --- |
| CC(C)(O)Cn1cc(NC(=O)c2cnn3cccnc23)c(-c2cc(Cl)ccc2OC(F)F)n1 [B, reference compound] | 0.4 | 431 | 1078 | – | – | – | – |
| CSc1ccc(OC(F)F)c(-c2nn(C)cc2NC(=O)c2cnn3cccnc23)c1 [D] | 0.13 | 193 | 1485 | – | – | greater selectivity for JAK1 over LRRK2 than their 5-chlorophenyl matched pair A | – |
| CNC(=O)[C@@H]1CCCN1C1CCN(C(=O)Cn2cc(NC(=O)c3cnn4cccnc34)c(-c3cc(SC(C)C)ccc3OC(F)F)n2)CC1 [Example 145, N-[3-[2-(difluoromethoxy)-5-isopropylsulfanyl-phenyl]-1-[2-[4-[(2S)-2-(methylcarbamoyl)pyrrolidin-1-yl]-1-piperidyl]-2-oxo-ethyl]pyrazol-4-yl]pyrazolo[1,5-a]pyrimidine-3-carboxamide] | – | – | – | 0.6 | 1.6 | – | 100 |
| CC(C)Sc1ccc(OC(F)F)c(-c2nn(CC(=O)N3CCC(N4CCCC(C#N)C4)CC3)cc2NC(=O)c2cnn3cccnc23)c1 (stereo not shown) [Example 107, N-[1-[2-[4-(3-cyano-1-piperidyl)-1-piperidyl]-2-oxo-ethyl]-3-[2-(difluoromethoxy)-5-isopropylsulfanyl-phenyl]pyrazol-4-yl]pyrazolo[1,5-a]pyrimidine-3-carboxamide] | – | – | – | 0.75 | 1.7 | – | 56 |
| CSc1ccc(OC(F)F)c(-c2nn(CC(C)(C)O)cc2NC(=O)c2cnn3cccnc23)c1 [H] | – | – | – | – | – | greater selectivity for JAK1 over LRRK2 than its 5-chlorophenyl matched pair B | – |
| CC(C)Sc1ccc(OC(F)F)c(-c2nn(CC(=O)N3CCN(C4CCOC4)CC3)cc2NC(=O)c2cnn3cccnc23)c1 (stereo not shown) [Example 128, N-[3-[2-(difluoromethoxy)-5-isopropylsulfanyl-phenyl]-1-[2-oxo-2-(4-tetrahydrofuran-3-ylpiperazin-1-yl)ethyl]pyrazol-4-yl]pyrazolo[1,5-a]pyrimidine-3-carboxamide] | – | – | – | 0.58 | 1.2 | – | 47 |
| CC(F)(F)CNC1CCN(C(=O)Cn2cc(NC(=O)c3cnn4cccnc34)c(-c3cc(SC4CC4)ccc3OC(F)F)n2)CC1 [Example 169, N-[3-[5-cyclopropylsulfanyl-2-(difluoromethoxy)phenyl]-1-[2-[4-(2,2-difluoropropylamino)-1-piperidyl]-2-oxo-ethyl]pyrazol-4-yl]pyrazolo[1,5-a]pyrimidine-3-carboxamide] | – | – | – | 0.43 | 0.8 | – | 20 |

From patent US20180265515A1 (Genentech, Inc., priority 2015, published 2018)
